Target: T1, human CRTH2 (Homo sapiens, UniProt Q9Y5Y4)
T1 construct: Full-length human CRTH2 cDNA was generated by polymerase chain reaction (PCR); expressed in transfected cells; host or cells: 293 cells stably transfected with pHLT124 (pcDNA3.1(+)), G418-selected; named 293(124)
T1 sequence (Q9Y5Y4 1-395): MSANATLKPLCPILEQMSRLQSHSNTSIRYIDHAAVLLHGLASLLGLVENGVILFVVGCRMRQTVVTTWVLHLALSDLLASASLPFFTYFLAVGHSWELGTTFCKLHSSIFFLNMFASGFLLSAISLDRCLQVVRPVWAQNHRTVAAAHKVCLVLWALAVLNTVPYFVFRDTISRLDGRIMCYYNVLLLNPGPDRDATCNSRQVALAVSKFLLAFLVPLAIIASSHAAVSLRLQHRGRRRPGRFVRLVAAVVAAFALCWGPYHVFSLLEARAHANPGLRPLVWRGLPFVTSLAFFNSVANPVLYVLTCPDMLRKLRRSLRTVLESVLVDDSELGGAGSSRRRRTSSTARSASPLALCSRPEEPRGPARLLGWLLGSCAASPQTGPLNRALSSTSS
Experiment: Human CRTH2 binding assay (3H-PGD2 binding, 293(124) cells)
Details: 3H-PGD2 binding to 293(124) cells stably expressing human CRTH2
Method: Human CRTH2 Binding Assay
Full-length human CRTH2 cDNA was generated by polymerase chain reaction (PCR) using human genomic DNA as template and subsequently cloned into pcDNA3.1(+) (Invitrogen), generating a CRTH2 expression plasmid pHLT124. The plasmid was transfected into 293 cells, which […] CRTH2, using LipofectAMINETM reagents (Gibco/BRL). G418 ([…]) was added to the culture 48 h after transfection and cells were maintained under selection for 3 weeks to ensure that all surviving cells stably expressed CRTH2. These cells are labeled as 293(124) hereafter.
^3H-PGD2 binding assay was performed using 293(124) cells. In brief, cells were washed and suspended in RPMI containing 0.5% BSA and 20 mM HEPES. Each assay contained 25,000 cells, appropriate amount of test compound when necessary and a mixture of 1 nM ^3H-PGD2 (Amersham Pharmacia Biotech) and 30 nM of unlabeled PGD2 (Cayman Chemicals) in […] final volume. The cell mixture was incubated at room temperature for 2.5 h with shaking and the cells were separated from free ^3H-PGD2 and transferred onto a filter plate using a cell harvester. Radioactivity bound to the cells was measured on a liquid scintillation counter. Nonspecific binding was determined in the presence of […] of unlabeled PGD2.

Question: For CC(=O)N(c1ccccc1)[C@H]1C[C@@H](C)N(C(=O)c2ccccc2)c2ccccc21 [Compound 3], which IC50 is on record?
Answer: The IC50 was less than 40 nM.

Question: Which IC50 does the source give for CCCCC(=O)N(c1ccccc1)[C@H]1C[C@@H](C)N(C(=O)c2ccccc2)c2ccccc21 [Compound 4] here?
Answer: Its IC50 is no less than 40 nM.

Question: CC(=O)N(c1ccc(Cl)cc1)[C@H]1C[C@@H](C)N(C(=O)c2ccc(Oc3ccccc3)cc2)c2ccccc21 [Compound 9] was tested. Which IC50 did it give?
Answer: Its IC50 is no less than 40 nM.

Question: CC(=O)N[C@H]1C[C@@H](C)N(C(=O)c2ccccc2)c2ccccc21 [Compound 12] was tested. Which IC50 did it give?
Answer: Its IC50 is no less than 40 nM.
